The values below are quoted from earlier work in patent US5525347A, “Composition and methods for treating performance anxiety” (Medical University of South Carolina, priority 1995, dated 1996).

One series relates to social phobia. To be noted: case reports; 10-120 mg.
Test in series [1]: not given
The source holds these as a separate data set.

Where a name gives a salt, the structure may show the parent alone.

As to `CC(C)NCC(O)COc1cccc2ccccc12` (stereo not shown) [Propranolol Hydrochloride, 1-(Isopropylamino)-3-(1-napthyloxy)-2-propanol hydrochloride], for the setting “heat”, the stability to heat entry is listed as “stable to heat”. For the same compound, where the note is “light”, the stability in light entry was “unstable in light”. Also, the “efficacy in social phobia” value with social phobia is “suggest efficacy”. In series [1] (chloroform), the “Solubility in chloroform” value is given as “slightly soluble”. For the same compound, in series [1] (ether), the Solubility in ether result is “practically insoluble”. For the same compound, the Solubility in alcohol in series [1] (volume of alcohol for 1 g) was 20 mL. In addition, the Solubility in water in series [1] (volume of water for 1 g) is 20 mL.
